In PubChem BioAssay AID743022 (Sanford-Burnham Center for Chemical Genomics, 2013) one finds IC50 data, which are given here for 48 compounds.

Several values for one entry are separate records, joined by “and”; a condition that tells them apart may be missing. Identical values can stand only once. Activity calls are given as the source filed them.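 Rule for the calls: active = compounds whose mean IC50 for blocking the worm GFP/RFP stress reporter is 5 µM or lower; inactive = the rest.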

This assay concerns C. elegans VP596 gst-4::GFP/RFP ratio, acrylamide-induced, 24 h. Kind of assay: analog inhibition of acrylamide-induced gst-4::GFP reporter, SAR follow-up, SKN-1 inhibitor project, whole organism, GFP/RFP fluorescence ratio, round 3 (AID 743022).
Take `c1cc(-c2nc(C3CC3)cs2)ccn1`: the IC50 (in general, the concentration needed to halve the response being measured) was > 64 µM (inactive). As to `COc1ccccc1-c1csc(-c2ccncc2)n1`, the IC50 was > 64 µM (inactive).

Turning to `Clc1ccc(-c2csc(-c3ccncc3)n2)cc1`, the IC50 was 1.34 µM and 1.92 µM. On to `Cc1ccc(-c2csc(C3CCNCC3)n2)cc1`, for which the IC50 was > 64 µM (inactive).

For the compound `Clc1ccccc1-c1csc(-c2ccncc2)n1`, the IC50 was 3.63 µM. Turning to `c1ccc(-c2csc(-c3cccnc3)n2)cc1`, the IC50 was 17.7 µM (inactive). The same measure for `Clc1ccc(-c2csc(-c3ccccc3)n2)cc1`: 2.1 µM; for `COc1ccc(-c2csc(-c3ccccc3)n2)cc1`: 28.8 µM (inactive).

For the compound `Cc1ccc(-c2csc(-c3cccnc3)n2)cc1`, the IC50 is > 64 µM (inactive). The same measure for `Cc1ccc(-c2csc(-c3ccncc3)n2)cc1`: 18.2 µM (inactive); for `Clc1ccc(-c2csc(-c3cccnc3)n2)cc1`: 1.67 µM and 0.379 µM.

For `Cc1ccc(-c2csc(-c3ccccn3)n2)cc1`, the IC50 was 27.4 µM (inactive). The same measure for `Fc1ccc(-c2csc(-c3ccccn3)n2)cc1`: 3.18 µM; for `c1ccc(-c2nc(-c3cccnc3)cs2)cc1`: > 64 µM (inactive).

For the compound `COc1ccc(-c2csc(-c3cccnc3)n2)cc1`, the IC50 was 13.4 µM (inactive). The value for `COc1cccc(-c2csc(-c3ccncc3)n2)c1` was 26.2 µM (inactive); that for `Cc1sc(-c2ccncc2)nc1-c1ccccc1` was 11.3 µM (inactive); that for `Cc1cccc(-c2csc(-c3ccncc3)n2)c1` was 30.1 µM (inactive). The value for `Clc1ccc(-c2csc(C3CCNCC3)n2)cc1` was > 64 µM (inactive); that for `Cc1sc(-c2ccncc2)nc1-c1ccc(F)cc1` was 4.77 µM; that for `Cc1sc(-c2ccncc2)nc1-c1ccc(Cl)cc1` was 3.24 µM.

As to `Fc1ccc(-c2csc(C3CCNCC3)n2)cc1`, the IC50 is > 64 µM (inactive). Consider `Cc1csc(-c2ccncc2)n1`, for which the IC50 was > 64 µM (inactive).

Consider `c1ccc(-c2csc(-c3ccccn3)n2)cc1`, for which the IC50 is 29 µM (inactive). Take `COc1ccc(-c2csc(C3CCNCC3)n2)cc1`: the IC50 is > 64 µM (inactive). Take `Fc1ccc(-c2csc(-c3ccncc3)n2)cc1`: the IC50 is 2.53 µM. The same measure for `COc1ccc(-c2nc(-c3ccncc3)sc2C)cc1`: 51.2 µM (inactive). The value for `c1ccc(-c2csc(-c3ccncc3)n2)cc1` was 2.5 µM; that for `Cc1ccccc1-c1csc(-c2ccncc2)n1` was 14.6 µM (inactive). In the case of `CC(C)(C)c1csc(-c2ccncc2)n1`, the IC50 is > 64 µM (inactive). The value for `N#Cc1ccc(-c2csc(-c3ccncc3)n2)cc1` was 13.5 µM (inactive); that for `c1ccc(-c2csc(C3CCNCC3)n2)cc1` was > 64 µM (inactive); that for `Fc1ccc(-c2csc(-c3ccccc3)n2)cc1` was 23.3 µM (inactive). The same measure for `COC(=O)c1ccc(-c2csc(-c3ccncc3)n2)cc1`: > 64 µM (inactive); for `Clc1ccc(-c2csc(-c3ccncc3)n2)cc1Cl`: 0.276 µM and 0.884 µM. The same measure for `CCCc1cc(-c2nc(-c3ccc(NS(C)(=O)=O)cc3)cs2)ccn1`: > 64 µM (inactive).

On to `Cc1ccc(-c2csc(-c3ccccc3)n2)cc1`, for which the IC50 is > 64 µM (inactive). Regarding `Cc1ccc(-c2nc(-c3ccncc3)sc2C)cc1`, the IC50 was > 64 µM (inactive). On to `c1cc(-c2nc(-c3nccs3)cs2)ccn1`, for which the IC50 was 21.5 µM (inactive). The same measure for `Cc1sc(C2CCNCC2)nc1-c1ccccc1`: > 64 µM (inactive); for `COc1ccc(-c2csc(-c3ccccn3)n2)cc1`: 17.9 µM (inactive); for `COc1ccc(-c2csc(-c3ccncc3)n2)cc1`: 16.6 µM (inactive). The same measure for `Clc1ccc(-c2csc(-c3ccncc3)n2)c(Cl)c1`: 1.1 µM. The value for `FC(F)(F)c1ccc(-c2csc(-c3ccncc3)n2)cc1` was 3.9 µM; that for `Fc1ccc(-c2csc(-c3cccnc3)n2)cc1` was 6.94 µM (inactive). `CCCc1cc(-c2nc(-c3ccc(C)cc3)cs2)ccn1`: the IC50 is 34.1 µM (inactive). On to `Clc1cccc(-c2csc(-c3ccncc3)n2)c1`, for which the IC50 was 1.49 µM. The same measure for `Clc1ccc(-c2csc(-c3ccccn3)n2)cc1`: 1.59 µM and 0.869 µM.
